Assay results from ChEMBL document CHEMBL1126305, “Synthesis and antiviral properties of (+/-)-5'-noraristeromycin and related purine carbocyclic nucleosides. A new lead for anti-human cytomegalovirus agent design” (1992).
In brackets after ≈: the same amount, converted by molar mass.

System: E6SM
Test: Minimum inhibitory concentration required to reduce virus induced cytopathicity by 50% was determined against HSV-1 virus in E6SM cells
Assay type: functional
Conditions: Homo sapiens

First: O=c1[nH]c(=O)n([C@H]2C[C@H](O)[C@@H](CO)O2)cc1/C=C/Br [BRIVUDINE]
Second: NC(=O)c1ncn([C@@H]2O[C@H](CO)[C@@H](O)[C@H]2O)n1 [RIBAVIRIN]
The MIC of the first is lower: 0.02 µg/mL (≈ 0.06 µM) for the first, > 400 µg/mL for the second.

System: HeLa
Test: Minimum inhibitory concentration required to reduce virus induced cytopathicity by 50% was determined against vesicular stomatitis virus in HeLa cells
Assay type: functional
Conditions: Homo sapiens

First: O=c1[nH]c(=O)n([C@H]2C[C@H](O)[C@@H](CO)O2)cc1/C=C/Br [BRIVUDINE]
Second: NC(=O)c1ncn([C@@H]2O[C@H](CO)[C@@H](O)[C@H]2O)n1 [RIBAVIRIN]
The MIC of the first is higher: > 400 µg/mL for the first, 20 µg/mL (≈ 81.9 µM) for the second.

System: Vero
Test: Minimum inhibitory concentration required to reduce virus induced cytopathicity by 50% was determined against semliki forest virus in Vero cells
Assay type: functional
Conditions: Chlorocebus sabaeus

Compared with `O=c1[nH]c(=O)n([C@H]2C[C@H](O)[C@@H](CO)O2)cc1/C=C/Br` [BRIVUDINE], `NC(=O)c1ncn([C@@H]2O[C@H](CO)[C@@H](O)[C@H]2O)n1` [RIBAVIRIN] is lower in MIC: > 400 µg/mL for the first, 40 µg/mL (≈ 164 µM) for the second.

System: Vero
Test: Minimum inhibitory concentration required to reduce virus induced cytopathicity by 50% was determined against reo type 1 virus in Vero cells
Assay type: functional
Conditions: Chlorocebus sabaeus

Compared with `O=c1[nH]c(=O)n([C@H]2C[C@H](O)[C@@H](CO)O2)cc1/C=C/Br` [BRIVUDINE], `NC(=O)c1ncn([C@@H]2O[C@H](CO)[C@@H](O)[C@H]2O)n1` [RIBAVIRIN] is lower in MIC: > 400 µg/mL for the first, 70 µg/mL (≈ 287 µM) for the second.

System: Vero
Test: Minimum inhibitory concentration required to reduce virus induced cytopathicity by 50% was determined against measles virus in Vero cells
Assay type: functional
Conditions: Chlorocebus sabaeus

`O=c1[nH]c(=O)n([C@H]2C[C@H](O)[C@@H](CO)O2)cc1/C=C/Br` [BRIVUDINE] was tested, and the MIC was > 400 µg/mL.

System: HEL
Test: Minimum inhibitory concentration required to reduce virus induced cytopathicity by 50% was determined against TK- VZV virus in HEL cells
Assay type: functional
Conditions: Homo sapiens

For `O=c1[nH]c(=O)n([C@H]2C[C@H](O)[C@@H](CO)O2)cc1/C=C/Br` [BRIVUDINE], the MIC was > 10 µg/mL.

System: Vero
Test: Minimum inhibitory concentration required to reduce virus induced cytopathicity by 50% was determined against junin virus in Vero cells
Assay type: functional
Conditions: Chlorocebus sabaeus

With `O=c1[nH]c(=O)n([C@H]2C[C@H](O)[C@@H](CO)O2)cc1/C=C/Br` [BRIVUDINE] the MIC was > 400 µg/mL.

System: Vero
Test: Minimum inhibitory concentration required to reduce virus induced cytopathicity by 50% was determined against parainfluenza 3 virus in Vero cells
Assay type: functional
Conditions: Chlorocebus sabaeus

`NC(=O)c1ncn([C@@H]2O[C@H](CO)[C@@H](O)[C@H]2O)n1` [RIBAVIRIN] showed an MIC of 20 µg/mL (≈ 81.9 µM).

System: HeLa
Test: Minimum inhibitory concentration required to reduce virus induced cytopathicity by 50% was determined against coxsackie B4 virus in HeLa cells
Assay type: functional
Conditions: Homo sapiens

First: O=c1[nH]c(=O)n([C@H]2C[C@H](O)[C@@H](CO)O2)cc1/C=C/Br [BRIVUDINE]
Second: NC(=O)c1ncn([C@@H]2O[C@H](CO)[C@@H](O)[C@H]2O)n1 [RIBAVIRIN]
The MIC of the first is higher: > 400 µg/mL for the first, 70 µg/mL (≈ 287 µM) for the second.

System: HeLa
Test: Minimum inhibitory concentration required to reduce virus induced cytopathicity by 50% was determined against polio 1 virus in HeLa cells
Assay type: functional
Conditions: Homo sapiens

`NC(=O)c1ncn([C@@H]2O[C@H](CO)[C@@H](O)[C@H]2O)n1` [RIBAVIRIN] was tested, and the MIC was 70 µg/mL (≈ 287 µM).

System: E6SM
Test: Minimum inhibitory concentration required to reduce virus induced cytopathicity by 50% was determined against vesicular stomatitis virus in E6SM cells
Assay type: functional
Conditions: Homo sapiens

Compared with `O=c1[nH]c(=O)n([C@H]2C[C@H](O)[C@@H](CO)O2)cc1/C=C/Br` [BRIVUDINE], `NC(=O)c1ncn([C@@H]2O[C@H](CO)[C@@H](O)[C@H]2O)n1` [RIBAVIRIN] is lower in MIC: > 400 µg/mL for the first, 70 µg/mL (≈ 287 µM) for the second.

System: HeLa
Test: Minimum inhibitory concentration required to reduce virus induced cytopathicity by 50% was determined against respiratory syncytial virus in HeLa cells
Assay type: functional
Conditions: Homo sapiens

For `O=c1[nH]c(=O)n([C@H]2C[C@H](O)[C@@H](CO)O2)cc1/C=C/Br` [BRIVUDINE], the MIC was > 400 µg/mL.

System: HEL
Test: Minimum inhibitory concentration required to reduce virus induced cytopathicity by 50% was determined against VZV virus in HEL cells
Assay type: functional
Conditions: Homo sapiens

Work on `O=c1[nH]c(=O)n([C@H]2C[C@H](O)[C@@H](CO)O2)cc1/C=C/Br` [BRIVUDINE] yielded an MIC of 0.001 µg/mL (≈ 0.003 µM).

System: E6SM
Test: Minimum inhibitory concentration required to reduce virus induced cytopathicity by 50% was determined against TK- HSV-1 virus in E6SM cells
Assay type: functional
Conditions: Homo sapiens

First: O=c1[nH]c(=O)n([C@H]2C[C@H](O)[C@@H](CO)O2)cc1/C=C/Br [BRIVUDINE]
Second: NC(=O)c1ncn([C@@H]2O[C@H](CO)[C@@H](O)[C@H]2O)n1 [RIBAVIRIN]
The MIC of the first is lower: 40 µg/mL (≈ 120 µM) for the first, > 400 µg/mL for the second.

System: Vero
Test: Minimum inhibitory concentration required to reduce virus induced cytopathicity by 50% was determined against coxsackie B4 virus in Vero cells
Assay type: functional
Conditions: Chlorocebus sabaeus

Compared with `O=c1[nH]c(=O)n([C@H]2C[C@H](O)[C@@H](CO)O2)cc1/C=C/Br` [BRIVUDINE], `NC(=O)c1ncn([C@@H]2O[C@H](CO)[C@@H](O)[C@H]2O)n1` [RIBAVIRIN] is lower in MIC: > 400 µg/mL for the first, 100 µg/mL (≈ 409 µM) for the second.

System: E6SM
Test: Minimum inhibitory concentration required to reduce virus induced cytopathicity by 50% was determined against HSV-2 virus in E6SM cells
Assay type: functional
Conditions: Homo sapiens

Going from `O=c1[nH]c(=O)n([C@H]2C[C@H](O)[C@@H](CO)O2)cc1/C=C/Br` [BRIVUDINE] to `NC(=O)c1ncn([C@@H]2O[C@H](CO)[C@@H](O)[C@H]2O)n1` [RIBAVIRIN], the MIC rises from 10 µg/mL (≈ 30 µM) to > 400 µg/mL.

System: E6SM
Test: Minimum inhibitory concentration required to reduce virus induced cytopathicity by 50% was determined against vaccinia virus in E6SM cells
Assay type: functional
Conditions: Homo sapiens

Going from `O=c1[nH]c(=O)n([C@H]2C[C@H](O)[C@@H](CO)O2)cc1/C=C/Br` [BRIVUDINE] to `NC(=O)c1ncn([C@@H]2O[C@H](CO)[C@@H](O)[C@H]2O)n1` [RIBAVIRIN], the MIC rises from 7 µg/mL (≈ 21 µM) to 40 µg/mL (≈ 164 µM) (5.7-fold).

System: Vero
Test: Minimum inhibitory concentration required to reduce virus induced cytopathicity by 50% was determined against sindbis virus in Vero cells
Assay type: functional
Conditions: Chlorocebus sabaeus

Compared with `O=c1[nH]c(=O)n([C@H]2C[C@H](O)[C@@H](CO)O2)cc1/C=C/Br` [BRIVUDINE], `NC(=O)c1ncn([C@@H]2O[C@H](CO)[C@@H](O)[C@H]2O)n1` [RIBAVIRIN] is lower in MIC: > 400 µg/mL for the first, 40 µg/mL (≈ 164 µM) for the second.
